Where a name gives a salt, the structure may show the parent alone. Read-outs that look alike come from different tables or passages of the source.
Test system: BDNF-induced nuclear Arc expression in primary cortical neurons
Assay: Chemogenomic screen: high-content image-based assay of BDNF-induced nuclear Arc expression (96-well)
Type: cell-based, mouse
Protocol: To increase the throughput of our pharmacological screening for modulators of Arc, the above mentioned assay was adapted to cultures of mouse primary cortical neurons in 96-well plates.
All 319 compounds were initially tested at a final concentration of 16.7 µM with three biological replicates.
Screening of compounds in the chemogenomic library was carried out using DIV13 primary forebrain cortical neurons cultured on poly-L-lysine/laminin-coated 96-well plates (Ibidi USA, Madison, WI). Cells were seeded at a density of 30,000 cells per well and treated with the compound library and BDNF according to the experimental design presented in Fig. 3a. After experimental treatment, cells were processed for Arc and acetyl-H3K9 immunocytochemistry according to the protocol described above. Both antigens (Arc and acetyl-H3K9) were imaged using an IN Cell Analyzer 6000 imaging system and a ×40 objective. […] High-throughput quantification of nuclear Arc immunofluorescence signal was performed in a similar fashion than the low-throughput procedure described above but with the exception that acetyl-H3K9 was used as a nuclear mask to guide the automated quantification of nuclear Arc immunofluorescence signal.

[1] = chemogenomic (SMART) screen, BDNF-induced nuclear Arc expression, primary cortical neurons, BDNF control 19.5
[2] = nuclear Arc-positive cells relative to DMSO + BDNF control, negative values = decrease
[3] = BDNF-induced nuclear Arc expression, primary cortical neurons, chemogenomic screen
[4] = nuclear Arc-positive cells relative to DMSO control (BDNF), negative = decrease

| Compound | Percentage of cell with nuclear Arc immunostaining above 2σ threshold [1] [%] | Fold-change — Normalized to DMSO control (BDNF) [2] [fold] | also measured |
| --- | --- | --- | --- |
| CN1CCc2c(c3ccccc3n2Cc2ccc(C(=O)NO)cc2)C1 [Tubastatin A] | 21.3 | 1.1 |  |
| CCOc1ccc2nc(S(N)(=O)=O)sc2c1 [Ethoxzolamide] |  |  | Percentage of cell with nuclear Arc immunostaining above 2σ threshold [3]: 8.4% |
| O=c1cccc2n1C[C@@H]1CNC[C@H]2C1 [Cytisine] |  |  | Percentage of cell with nuclear Arc immunostaining above 2σ threshold: 15.7% |
| O=C(O)CCCNC(=O)c1cccnc1 [Pikamilone] | 38.6 | 2.0 |  |
| O=c1c(-c2ccc(O)cc2)coc2cc(O)cc(O)c12 [Genistein] | 31.7 | 1.6 |  |
| O=C1Cc2cc(CCN3CCN(c4nsc5ccccc45)CC3)c(Cl)cc2N1 [Ziprasidone] |  |  | Percentage of cell with nuclear Arc immunostaining above 2σ threshold [3]: 3.3% |
| Oc1noc2c1CCNC2 [Gaboxadol] |  |  | Percentage of cell with nuclear Arc immunostaining above 2σ threshold: 13.6% |
| CC1Nc2ccc(Cl)cc2S(=O)(=O)N1 (stereo not shown) [IDRA-21] | 12.2 | -1.6 |  |
| COc1cc(N)c(Cl)cc1C(=O)NC1CCN(Cc2ccccc2)CC1 [Clebopride] | 25.8 | 1.3 |  |
| Cc1nc(C(=O)NCC(=O)O)c(O)c2ccc(Oc3ccccc3)cc12 [FG-4592] | 26.8 | 1.4 |  |
| Cn1cc(C2=C(c3coc4ccccc34)C(=O)NC2=O)c2cc(Br)ccc21 [ING-135] |  | 1.7 | Percentage of cell with nuclear Arc immunostaining above 2σ threshold: 34.1% |
| C[C@@H]1C(=O)O[C@H]2C[C@@]34[C@H]5C[C@@H](C(C)(C)C)[C@]36[C@@H](OC(=O)[C@@H]6O)O[C@@]4(C(=O)O5)[C@]21O [Ginkgolide A] | 19.3 |  |  |
| C1CCN2C[C@@H]3C[C@@H](CN4CCCC[C@@H]34)[C@H]2C1 [Sparteine] |  | 1.3 | Percentage of cell with nuclear Arc immunostaining above 2σ threshold: 25.6% |
| O=C(O)CNC(=O)c1c(O)c2ccccc2n(Cc2ccccc2)c1=O [IOX2] | 45.4 | 2.3 |  |
| NC(=O)c1cn(Cc2c(F)cccc2F)nn1 [Rufinamide] | 20.3 | 1.0 |  |
| OC(CCN1CCCCC1)(c1ccccc1)C1CC2C=CC1C2 (stereo not shown) [Biperiden] | 13.3 |  |  |
| Cl.c1ccc2c(c1)OCC(C1=NCCN1)O2 (stereo not shown) [Idazoxan hydrochloride, RX 781094] | 24.1 | 1.2 |  |
| CC(=O)[C@H]1CC[C@H]2[C@@H]3CC=C4C[C@@H](O)CC[C@]4(C)[C@H]3CC[C@]12C [Pregnenolone] | 24.4 | 1.2 |  |
| CCC(C)C(CC)C(N)=O (stereo not shown) [Valnoctamide] | 24.6 | 1.3 |  |
| CC(C)CNC(=O)/C=C/C=C/c1ccc2c(c1)OCO2 [Piperlonguminine] | 23.0 | 1.2 |  |
| COC[C@@H](NC(C)=O)C(=O)NCc1ccccc1 [Lacosamide] |  |  | Percentage of cell with nuclear Arc immunostaining above 2σ threshold: 6.7% |
| C[C@@](Cc1ccc(O)c(O)c1)(NN)C(=O)O [Carbidopa] | 36.1 | 1.9 |  |
| CN(C)CC/C=C1/c2ccccc2Sc2ccc(Cl)cc21 [Chlorprothixene] |  |  | Percentage of cell with nuclear Arc immunostaining above 2σ threshold [3]: 1.0% |
| CCOC(=O)c1cncn1[C@H](C)c1ccccc1 [Etomidate] |  |  | Percentage of cell with nuclear Arc immunostaining above 2σ threshold: 13.0% |
| NC(=O)CCC/N=C(\c1ccc(Cl)cc1)c1cc(F)ccc1O [Progabide] | 19.5 | 1.0 |  |
| COc1cc2c(cc1OC)[C@@H]1Cc3ccc(OC)c(OC)c3CN1CC2 [Rotundine] | 28.7 | 1.5 |  |

| Compound | Percentage of cell with nuclear Arc immunostaining above 2σ threshold [1] [%] | Fold-change — Normalized to DMSO control (BDNF) [2] [fold] | also measured |
| --- | --- | --- | --- |
| OC(CCN1CCCC1)(c1ccccc1)C1CCCCC1 (stereo not shown) [Procyclidine hydrochloride] | 19.3 |  |  |
| O=c1cc(-c2ccccc2)oc2c(O)c(O)ccc12 [7,8-Dihydroxyflavone] | 32.7 | 1.7 |  |
| Cc1cc2c(s1)Nc1ccccc1N=C2N1CCN(C)CC1 [Olanzapine] |  |  | Percentage of cell with nuclear Arc immunostaining above 2σ threshold: 19.4% |
| CCNC1=Nc2ccc(Cl)cc2C(C)(c2ccccc2)O1 (stereo not shown) [Etifoxine] |  |  | Percentage of cell with nuclear Arc immunostaining above 2σ threshold: 0.0% |
| CC(C)C[C@H](NC(=O)[C@H](CCCCN)NC(=O)[C@H](CCCN=C(N)N)NC(=O)[C@H](C)NC(=O)[C@H](CO)NC(=O)[C@H](CCCCN)NC(=O)[C@H](CCCN=C(N)N)NC(=O)[C@H](C)NC(=O)CNC(=O)[C@@H](NC(=O)[C@H](Cc1ccccc1)NC(=O)CNC(=O)CNC(=O)[C@@H](N)Cc1ccccc1)[C@@H](C)O)C(=O)N[C@@H](C)C(=O)N[C@@H](CC(N)=O)C(=O)N[C@@H](CCC(N)=O)C(=O)O [Nociceptin] |  | 1.1 | Percentage of cell with nuclear Arc immunostaining above 2σ threshold: 21.6% |
| OCCOCCN1CCN(C2=Nc3ccccc3Sc3ccccc32)CC1 [Quetiapine fumarate] | 25.9 | 1.3 |  |
| Cc1ccsc1C(=CCCN1CCC[C@@H](C(=O)O)C1)c1sccc1C [Tiagabine] |  |  | Percentage of cell with nuclear Arc immunostaining above 2σ threshold [3]: 7.4% |
| CN1CCC[C@@H]1Cc1c[nH]c2ccc(CCS(=O)(=O)c3ccccc3)cc12 [Eletriptan] |  |  | Percentage of cell with nuclear Arc immunostaining above 2σ threshold [3]: 3.7% |
| Cl.O=C(O)C1CCCN(CCC=C(c2ccccc2)c2ccccc2)C1 (stereo not shown) [SKF 89976A hydrochloride] |  | 1.1 | Percentage of cell with nuclear Arc immunostaining above 2σ threshold: 21.6% |
| CN(C)CC(c1ccc(O)cc1)C1(O)CCCCC1 (stereo not shown) [Desvenlafaxine] | 33.0 | 1.7 |  |
| C#CCN[C@@H]1CCc2ccccc21 [Rasagiline] | 14.8 |  |  |
| CN(C)CCC(c1ccc(Cl)cc1)c1ccccn1 (stereo not shown) [Chlorphenamine] | 31.0 | 1.6 |  |
| CC(C)(C)OC(=O)c1ncn2c1[C@@H]1CCCN1C(=O)c1c(Br)cccc1-2 [Bretazenil] |  | 2.0 | Percentage of cell with nuclear Arc immunostaining above 2σ threshold: 39.0% |
| CN1C[C@H](C(=O)N[C@]2(C)O[C@@]3(O)[C@@H]4CCCN4C(=O)[C@H](Cc4ccccc4)N3C2=O)C[C@@H]2c3cccc4[nH]cc(c34)C[C@H]21.CN1C[C@H](C(=O)N[C@]2(C)O[C@@]3(O)[C@@H]4CCCN4C(=O)[C@H](Cc4ccccc4)N3C2=O)C[C@@H]2c3cccc4[nH]cc(c34)C[C@H]21.O=C(O)C(O)C(O)C(=O)O [Dihydroergotamine tartrate] | 22.0 | 1.1 |  |
| C=C[C@@]1(C)CC(=O)[C@]2(O)[C@@]3(C)[C@@H](O)CCC(C)(C)[C@@H]3[C@H](O)[C@H](OC(C)=O)[C@@]2(C)O1 [Forskolin] | 29.3 | 1.5 |  |
| Dihydroergotoxine mesylate | 24.3 | 1.2 |  |
| CC(C)c1c(CN(C)C(C)Cc2ccccc2)n(C)n(-c2ccccc2)c1=O (stereo not shown) [Famprofazone] |  |  | Percentage of cell with nuclear Arc immunostaining above 2σ threshold: 18.1% |
| CC[C@]12CCCN3CCc4c(n(c5ccccc45)[C@@](O)(C(=O)OC)C1)[C@@H]32 [Vincamine] | 19.0 |  |  |
| NS(=O)(=O)c1cc2c(cc1Cl)NC(C1CC3C=CC1C3)NS2(=O)=O (stereo not shown) [Cyclothiazide] |  |  | Percentage of cell with nuclear Arc immunostaining above 2σ threshold [3]: 8.4% |
| CO[C@]12C[C@@H](COC(=O)c3cncc(Br)c3)CN(C)[C@@H]1Cc1cn(C)c3cccc2c13 [Nicergoline] |  |  | Percentage of cell with nuclear Arc immunostaining above 2σ threshold [3]: 6.1% |
| C#CCN(C)CCCOc1ccc(Cl)cc1Cl [Clorgyline] |  |  | Percentage of cell with nuclear Arc immunostaining above 2σ threshold [3]: 7.4%; Fold-change — Normalized to DMSO control (BDNF) [4]: -2.6 fold |
| CN[C@H]1CC[C@@H](c2ccc(Cl)c(Cl)c2)c2ccccc21 [Sertraline] |  |  | Percentage of cell with nuclear Arc immunostaining above 2σ threshold [3]: 0.0% |
| O=c1[nH]c2ccccc2n1C1CCN(CCCC(c2ccc(F)cc2)c2ccc(F)cc2)CC1 [Pimozide] |  |  | Percentage of cell with nuclear Arc immunostaining above 2σ threshold [3]: 1.1% |
| COc1cc2c(cc1OC)-c1cc3ccc(OC)c(OC)c3c[n+]1CC2 [Palmatine] |  |  | Percentage of cell with nuclear Arc immunostaining above 2σ threshold: 1.1%; Fold-change — Normalized to DMSO control (BDNF) [4]: -17.5 fold |
| O=C(NCCN1CCOCC1)c1ccc(Cl)cc1 [Moclobemide] |  |  | Percentage of cell with nuclear Arc immunostaining above 2σ threshold [3]: 8.9% |
| N[C@@H]1C[C@H]1c1ccccc1 [Tranylcypromine hydrochloride] | 26.6 | 1.4 |  |
